Results: ChEMBL document CHEMBL5126595, “Identification and anti-tumor evaluation of 3-acyl-indol-based 2,4-diarylaminopyrimidine analogues as potent ALK inhibitors capable of overcoming drug-resistant mutants” (Eur J Med Chem, 2022)
Active and inactive are the calls of the source. The rule behind the calls is not given here.

Key:
[1] = Clearance in Sprague-Dawley rat at 2 mg/kg, iv by LC-MS/MS analysis; type: ADME, organism-based; details: in vivo
[2] = target: ALK tyrosine kinase receptor (Homo sapiens, UniProt Q9UM73, L1196M); assay: Inhibition of N-terminal GST-tagged human ceritinib-resistant ALK L1196M mutant (1058 to 1620 residues) cytoplasmic domain expressed in baculovirus infected Sf21 cells incubated for 1 hrs in the presence of ATP by mobility shift assay
Chain of ALK tyrosine kinase receptor (Homo sapiens, UniProt Q9UM73, L1196M) (Q9UM73 19-1620 L1196M limits assumed): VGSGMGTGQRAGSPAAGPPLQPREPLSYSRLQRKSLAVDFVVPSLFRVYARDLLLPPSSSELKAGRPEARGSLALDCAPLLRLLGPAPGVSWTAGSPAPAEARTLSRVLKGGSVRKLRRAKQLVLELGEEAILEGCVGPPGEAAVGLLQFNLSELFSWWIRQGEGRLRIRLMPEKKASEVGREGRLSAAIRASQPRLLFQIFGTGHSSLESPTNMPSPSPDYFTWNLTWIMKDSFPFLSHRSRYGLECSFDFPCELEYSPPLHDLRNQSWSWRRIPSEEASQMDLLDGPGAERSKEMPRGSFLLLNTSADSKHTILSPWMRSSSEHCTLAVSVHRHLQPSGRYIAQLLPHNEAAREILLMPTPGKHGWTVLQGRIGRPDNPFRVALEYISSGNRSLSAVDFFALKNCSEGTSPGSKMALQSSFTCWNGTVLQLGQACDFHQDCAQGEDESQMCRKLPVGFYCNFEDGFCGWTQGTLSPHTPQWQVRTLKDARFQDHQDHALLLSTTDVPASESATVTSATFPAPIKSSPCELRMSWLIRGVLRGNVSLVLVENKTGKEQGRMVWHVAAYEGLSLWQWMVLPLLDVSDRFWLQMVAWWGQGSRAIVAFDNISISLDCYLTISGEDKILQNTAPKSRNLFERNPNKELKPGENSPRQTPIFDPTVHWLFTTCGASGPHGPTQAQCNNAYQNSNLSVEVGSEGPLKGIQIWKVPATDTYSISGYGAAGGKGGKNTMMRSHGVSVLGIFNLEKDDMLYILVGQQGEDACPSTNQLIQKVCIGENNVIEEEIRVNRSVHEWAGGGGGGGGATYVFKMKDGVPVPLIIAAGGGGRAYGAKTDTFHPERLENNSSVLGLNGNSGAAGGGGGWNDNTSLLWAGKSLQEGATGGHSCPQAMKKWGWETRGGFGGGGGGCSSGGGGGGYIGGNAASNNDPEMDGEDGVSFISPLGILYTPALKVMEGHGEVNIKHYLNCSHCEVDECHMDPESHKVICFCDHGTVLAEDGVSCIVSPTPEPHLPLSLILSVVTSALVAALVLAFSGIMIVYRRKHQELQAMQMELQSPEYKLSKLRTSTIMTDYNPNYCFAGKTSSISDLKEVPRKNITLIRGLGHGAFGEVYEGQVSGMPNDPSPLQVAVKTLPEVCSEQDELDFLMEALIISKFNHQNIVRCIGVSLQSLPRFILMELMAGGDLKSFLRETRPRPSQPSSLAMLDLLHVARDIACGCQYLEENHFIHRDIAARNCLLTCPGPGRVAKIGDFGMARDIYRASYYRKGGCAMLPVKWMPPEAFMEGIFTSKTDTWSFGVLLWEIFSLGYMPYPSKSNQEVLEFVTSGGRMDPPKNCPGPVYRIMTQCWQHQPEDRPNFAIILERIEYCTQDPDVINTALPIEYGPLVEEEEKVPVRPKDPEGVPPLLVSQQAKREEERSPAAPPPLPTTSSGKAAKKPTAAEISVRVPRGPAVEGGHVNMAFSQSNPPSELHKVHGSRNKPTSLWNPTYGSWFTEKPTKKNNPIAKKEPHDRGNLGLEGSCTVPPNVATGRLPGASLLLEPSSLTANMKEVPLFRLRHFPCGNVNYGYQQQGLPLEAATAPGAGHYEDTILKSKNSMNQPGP

[3] = Oral bioavailability in Sprague-Dawley rat at 10 mg/kg by LC-MS/MS analysis; type: ADME, organism-based; details: in vivo
[4] = test system: BaF3; assay: Antiproliferative activity IL3 […] Ba/F3 cells assessed as inhibition of cell growth incubated for 72 hrs by MTT assay; type: functional, cell-based; details: Mus musculus, BaF3, 72 h
[5] = test system: NCI-H2228; assay: Induction of cell cycle arrest in human NCI-H2228 cells assessed as decrease in S phase cells at 100 nM incubated for 48 hrs by PI/RNase staining based flow cytometry analysis (reference value: 34.90 %); type: functional; parameters: scale not given: the % may be the effect or the level left
[6] = test system: A549; assay: Antiproliferative activity against EGFR positive human A549 cells assessed as inhibition of cell growth incubated for 72 hrs by MTT assay; type: functional, cell-based; details: A549, 72 h
[7] = Metabolic stability in Sprague-Dawley rat liver microsomes assessed as half-life at 10 uM preincubated for 5 mins in the presence of NADPH followed by microsomal addition and measured upto 60 mins by HPLC analysis; type: ADME, Microsome; details: time < 65 min
[8] = test system: KARPAS-299; assay: Antiproliferative activity against NPM-ALK positive human KARPAS-299 cells assessed as inhibition of cell growth incubated for 72 hrs by MTT assay; type: functional, cell-based; details: KARPAS-299, 72 h
[9] = AUC (0 to t) in Sprague-Dawley rat at 10 mg/kg, po by LC-MS/MS analysis; type: ADME, organism-based; parameters: dose 10 mg/kg, route po; details: in vivo
[10] = test system: NCI-H2228; assay: Induction of apoptosis in human NCI-H2228 cells assessed as viable cells at 25 nM incubated for 48 hrs by AnnexinV-FITC/propidium iodide staining based flow cytometry analysis (reference value: 92.3 %); type: functional; details: read-out: Activity
[11] = test system: NCI-H2228; assay: Induction of apoptosis in human NCI-H2228 cells assessed as late apoptotic cells at 100 nM incubated for 48 hrs by AnnexinV-FITC/propidium iodide staining based flow cytometry analysis (reference value: 4.72 %); type: functional
[12] = AUC (0 to t) in Sprague-Dawley rat at 2 mg/kg, iv by LC-MS/MS analysis; type: ADME, organism-based; parameters: dose 2 mg/kg, route iv; details: in vivo
[13] = test system: NCI-H2228; assay: Inhibition of cell migration in human NCI-H2228 cells at 10 nM measured at 48 hrs by inverted microscopic based cell scratch assay relative to control; type: functional
[14] = Half-life in Sprague-Dawley rat at 2 mg/kg, iv by LC-MS/MS analysis; type: ADME, organism-based; details: in vivo
[15] = target: ALK tyrosine kinase receptor (Homo sapiens, UniProt Q9UM73, G1202R); assay: Inhibition of N-terminal GST-tagged human ceritinib-resistant ALK G1202R mutant (1058 to 1620 residues) cytoplasmic domain expressed in baculovirus infected Sf21 cells incubated for 1 hrs in the presence of ATP by mobility shift assay
Chain of ALK tyrosine kinase receptor (Homo sapiens, UniProt Q9UM73, G1202R) (Q9UM73 19-1620 G1202R limits assumed): as the sequence (Q9UM73 19-1620 L1196M limits assumed) above, with M1178L, G1184R counted along it

[16] = test system: NCI-H2228; assay: Induction of apoptosis in human NCI-H2228 cells assessed as total apoptotic cells at 25 nM incubated for 48 hrs by AnnexinV-FITC/propidium iodide staining based flow cytometry analysis; type: functional
[17] = test system: NCI-H2228; assay: Inhibition of cell migration in human NCI-H2228 cells at 2.5 to 10 nM by inverted microscopic based cell scratch assay; type: functional; details: dose 2.5-10 nM, time 24-48 hrs, TDE = time-dependent effect
[18] = Toxicity in BALB/c nude mouse xenografted with human NCI-H2228 cells assessed as effect on body weight at 25 to 50 mg/kg, IG administered every 2 days for 7 times; type: organism-based; details: in vivo, po, 48 h, dose 25-50 mg/kg, time 2 day
[19] = test system: NCI-H2228; assay: Induction of apoptosis in human NCI-H2228 cells assessed as solidified nuclei at 25 to 100 nM incubated for 48 hrs by Hoechst 33342 staining based fluorescence microscopic analysis; type: functional, cell-based; details: dose 25-100 nM
[20] = target: Epidermal growth factor receptor (Homo sapiens, UniProt P00533); assay: Inhibition of human EGFR (669 to 1210 residues) cytoplasmic domain expressed in baculovirus infected Sf21 cells incubated for 1 hrs in the presence of ATP by mobility shift assay
Chain of Epidermal growth factor receptor (P00533 whole entry, the tested form may be a part): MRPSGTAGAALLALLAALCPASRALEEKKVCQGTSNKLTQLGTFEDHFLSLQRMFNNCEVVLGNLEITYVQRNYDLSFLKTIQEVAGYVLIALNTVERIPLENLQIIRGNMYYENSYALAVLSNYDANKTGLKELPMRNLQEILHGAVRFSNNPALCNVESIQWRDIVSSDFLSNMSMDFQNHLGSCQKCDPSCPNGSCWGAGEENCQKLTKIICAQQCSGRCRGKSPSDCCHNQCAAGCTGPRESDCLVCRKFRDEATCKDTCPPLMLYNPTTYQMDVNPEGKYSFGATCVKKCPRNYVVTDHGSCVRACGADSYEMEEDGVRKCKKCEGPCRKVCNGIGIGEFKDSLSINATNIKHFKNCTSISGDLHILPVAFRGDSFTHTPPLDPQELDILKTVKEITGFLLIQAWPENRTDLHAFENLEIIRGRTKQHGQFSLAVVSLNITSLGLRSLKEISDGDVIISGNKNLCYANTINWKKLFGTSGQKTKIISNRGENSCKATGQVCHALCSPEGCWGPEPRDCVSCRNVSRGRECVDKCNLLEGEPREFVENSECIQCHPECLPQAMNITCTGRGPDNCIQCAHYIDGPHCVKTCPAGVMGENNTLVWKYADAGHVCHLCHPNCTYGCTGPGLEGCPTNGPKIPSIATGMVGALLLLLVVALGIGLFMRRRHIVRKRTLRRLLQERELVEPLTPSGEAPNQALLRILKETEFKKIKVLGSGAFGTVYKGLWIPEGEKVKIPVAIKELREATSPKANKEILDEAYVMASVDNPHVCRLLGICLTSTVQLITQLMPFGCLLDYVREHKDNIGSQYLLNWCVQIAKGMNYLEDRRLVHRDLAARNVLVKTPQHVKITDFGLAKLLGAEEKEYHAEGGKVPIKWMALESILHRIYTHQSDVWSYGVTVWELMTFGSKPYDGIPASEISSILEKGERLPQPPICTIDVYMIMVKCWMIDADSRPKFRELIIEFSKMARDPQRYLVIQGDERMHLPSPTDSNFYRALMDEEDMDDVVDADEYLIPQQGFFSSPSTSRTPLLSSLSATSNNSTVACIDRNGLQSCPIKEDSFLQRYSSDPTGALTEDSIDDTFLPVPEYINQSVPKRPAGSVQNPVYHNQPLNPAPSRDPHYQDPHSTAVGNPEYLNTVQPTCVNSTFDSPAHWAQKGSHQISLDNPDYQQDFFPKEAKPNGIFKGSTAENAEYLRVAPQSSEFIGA

[21] = Metabolic stability in Sprague-Dawley rat liver microsomes assessed as parent compound remaining measured upto 60 mins by HPLC analysis; type: ADME, Microsome; details: read-out: Stability
[22] = MRT in Sprague-Dawley rat at 10 mg/kg, po by LC-MS/MS analysis; type: ADME, organism-based; details: in vivo
[23] = test system: NCI-H2228; assay: Induction of apoptosis in human NCI-H2228 cells assessed as late apoptotic cells at 50 nM incubated for 48 hrs by AnnexinV-FITC/propidium iodide staining based flow cytometry analysis (reference value: 4.72 %); type: functional
[24] = test system: NCI-H2228; assay: Induction of apoptosis in human NCI-H2228 cells assessed as chromatin condensation by measuring brilliant blue fluorescence at 25 to 100 nM incubated for 48 hrs by Hoechst 33342 staining based fluorescence microscopic analysis; type: functional, cell-based; details: dose 25-100 nM
[25] = target: T1, ALK tyrosine kinase receptor (Homo sapiens, UniProt Q9UM73); assay: Inhibition of ALK downstream signalling in human NCI-H2228 cells assessed as reduction in phosphorylated AKT level measured after 24 hrs by Western blot analysis; type: cell-based; details: dose 25-100 nM, DDE = dose-dependent effect
T1 sequence (Q9UM73 19-1620 limits assumed): as the sequence (Q9UM73 19-1620 L1196M limits assumed) above, with M1178L counted along it

[26] = Half-life in Sprague-Dawley rat at 10 mg/kg, po by LC-MS/MS analysis; type: ADME, organism-based; details: in vivo
[27] = Antiproliferative activity […] EML4-ALK cells assessed as inhibition of cell growth incubated for 72 hrs by MTT assay; type: functional, cell-based
[28] = test system: NCI-H2228; assay: Induction of apoptosis in human NCI-H2228 cells assessed as total apoptotic cells at 100 nM incubated for 48 hrs by AnnexinV-FITC/propidium iodide staining based flow cytometry analysis; type: functional
[29] = test system: NCI-H2228; assay: Induction of apoptosis in human NCI-H2228 cells assessed as nuclei fragmentation by measuring brilliant blue fluorescence at 25 to 100 nM incubated for 48 hrs by Hoechst 33342 staining based fluorescence microscopic analysis; type: functional, cell-based; details: dose 25-100 nM
[30] = test system: NCI-H2228; assay: Induction of cell cycle arrest in human NCI-H2228 cells assessed as decrease in G2 phase cells at 50 nM incubated for 48 hrs by PI/RNase staining based flow cytometry analysis (reference value: 15.38 %); type: functional; parameters: scale not given: the % may be the effect or the level left
[31] = Volume of distribution at steady state in Sprague-Dawley rat at 2 mg/kg, iv by LC-MS/MS analysis; type: ADME, organism-based; details: in vivo, read-out: Vdss
[32] = test system: NCI-H2228; assay: Induction of apoptosis in human NCI-H2228 cells assessed as early apoptotic cells by measuring bright green fluorescence at 25 nM incubated for 48 hrs by AO/EB staining based fluorescence microscopic analysis; type: functional, cell-based
[33] = target: T1, ALK tyrosine kinase receptor; assay: Inhibition of ALK downstream signalling in human NCI-H2228 cells assessed as reduction in ERK level measured after 24 hrs by Western blot analysis; type: cell-based; details: dose 25-100 nM, DDE = dose-dependent effect
[34] = test system: HCT-116; assay: cells; details: Homo sapiens, HCT-116, 72 h
Description: Antiproliferative activity against human HCT-116 cells assessed as inhibition of cell growth incubated for 72 hrs by MTT assay

[35] = MRT in Sprague-Dawley rat at 2 mg/kg, iv by LC-MS/MS analysis; type: ADME, organism-based; details: in vivo

## CNC(=O)c1ccccc1Nc1nc(Nc2ccc3c(C(=O)N(C)C)c(C)[nH]c3c2)ncc1Cl
[1]
  clearance: 36.2 mL/min/kg
[2]
  IC50: 0.0037 µM
[3]
  bioavailability: 38.2%
[4]
  IC50: > 1 µM
[5]
  Activity: 29.32%
[6]
  IC50: 2.39 µM
[7]
  half-life at 10 µM: 0.603 h
[8]
  IC50: 0.011 µM
[9]
  AUC(0-t): 1720 ng·h/mL
[10]
  viability at 0.025 µM: 84.1%
[11]
  Activity: 23%
[12]
  AUC(0-t): 879 ng·h/mL
[13]
  inhibition at 0.01 µM: 4.5%
[14]
  half-life: 2.5 h
[15]
  IC50: 0.0029 µM
[16]
  Activity: 14.23%
[17]
  inhibition: Tde
[18]
  Activity: Non-Toxic
[19]
  Activity: Active
[20]
  IC50: > 1 µM
[21]
  remaining at 1 h: 90%
[22]
  MRT: 6.6 h
[23]
  Activity: 16.5%
[24]
  Activity: Active
[25]
  inhibition: Dde
[26]
  half-life: 4.1 h
[27]
  IC50: 0.021 µM
[28]
  Activity: 31.7%
[29]
  Activity: Active
[30]
  Activity: 13.28%
[31]
  Vd: 7.9 L/kg
[32]
  Activity: Active
[33]
  inhibition: Dde
[34]
  IC50: 1.34 µM
[35]
  MRT: 3.5 h
